# Entries after “also recorded” stand apart in the source; their conditions may differ. No end group written: not given here.
# How the values were obtained:
# Acinetobacter sp. = assay: Antibacterial activity, broth microdilution, Acinetobacter sp.; format: cell-based
# Description: (§1) The antibacterial activities were determined by the standard broth microdilution method of National Committee for Clinical Laboratory Standards with the MH and LYM broth. MH or LYM broth with 50, 100, 200, or 300 mM NaCl (containing 5.4 mM KCl, 5.6 mM Na2HPO4, 0.5 mM MgSO4, and 1.0 mM sodium citrate, 0.4 mg of ZnCl2, 2.0 mg of FeCl3.6H2O, 0.1 mg of CuSO4.5H2O, 0.1 mg of MnSO4.H2O, 0.1 mg of Na2B4O7.10H2O, 700 mg of amino acid mixtures without tryptophan (Clontech), and 20 mg of L-Tryptophan, 2% vitamin mixture (100×, Sigma) and glucose at final concentration of 2%) were used to serially dilute the anti-endotoxin polypeptide of the present invention to obtain anti-endotoxin polypeptide solutions with a concentration ranging from 3,200 to 100 μg/mL.
# (§2) 1 μL of peptide solutions were mixed with 99 μL inoculums (5×10^5 CFU/mL) in polypropylene 96-well plates, respectively. The turbidity at OD600 nm was determined by ELISA plate reader (Thermo Max, Molecular Devices, Sunnyvale, Calif.). The absorbance of culture medium and inoculum without peptides were used as the negative and positive control, respectively. […] All peptides were tested in triplicate. […] KR12AGPKR6 peptide was very effective against bacteria in LYM broth condition (MIC=about 2 μg/mL).
# [1] = LPS aggregation, dynamic light scattering; conditions: peptide 8 and 16 μg/mL, LPS 25 μM
# Description: The LPS molecule were dissolved in chloroform:methanol (2:1) then the stock solution was sonicated at 40° C. for 20 minutes and then kept at 4° C. overnight. The stock solution were diluted to 25 μM by using 20 mM sodium phosphate buffer with 150 mM sodium chloride and then at 4° C. overnight for use. Peptide concentration was diluted to 8 or 16 μg/mL. After the LPS solution was interacted with the peptide solution, the particle size and distribution analysis was measured by dynamic light scattering in Malvern Zetasizer ZS (Malvern, UK).
# [2] = Peptide-induced calcein leakage of POPC/POPG LUVs
# Description: (§3) In this embodiment, the large unilamellar vesicles (LUVs) of POPC/LPS (POPC:LPS=12.5:1 mol/mol), POPC/cholesterol (POPC:cholesterol=2:1 mol/mol), and POPC:POPG (POPC:POPG=3:1 mol/mol) were prepared by the extrusion method with Avanti small-volume extrusion apparatus (Avanti Polar Lipid). Calcein-filed LUVs were prepared by calcein-containing buffer (70 mM calcein and 10 mM Tris at pH 7.4). Peptide-induced calcein leakages were measured by Perkin-Elmer luminescence spectrofluorimeter at excitation and emission wavelengths of 496 and 515 nm, respectively. Leakage is expressed as a percentage relative to the total amount of dye released by addition of 100 mg/mL of Triton X-100, which represented 100% leakage (the maximum fluorescence intensity).
# (§4) The degree of leakage induced by various concentrations of polypeptides was estimated by: % leakage=(F−F0)/(Fr−F0)×100%, wherein the F0 is the initial fluorescence intensity observed without peptide, and Fr is the fluorescence intensity of 100% leakage.
# [3] = system: gram-positive and negative bacteria; assay: Antibacterial activity and salt resistance, broth microdilution (MIC); format: cell-based
# Description: as §1, §2
# [4] = Peptide-induced calcein leakage of POPC/LPS LUVs
# Description: as §3, §4
# [5] = system: LPS (Control Standard Endotoxin); assay: Binding and neutralization of LPS, Limulus Amebocyte Lysate (LAL) assay; format: biochemical; conditions: peptide 8-128 μg/mL, CSE 5EU
# Description: The abilities of the anti-endotoxin polypeptides to bind and neutralize LPS were assessed using Limulus Amebocyte Lysate (LAL) assay (Cape Cod Inc, East Falmouth, Mass., USA). 25 μL of different peptide concentration (128, 64, 32, 16, and 8 μg/mL) were mixed with 25 μL CSE (Control Standard Endotoxin) (5EU) in a 96-well plate, and 50 μL of Pyrochrome® reagent was added to wells immediately. The absorbance at 405 nm was measured by microplate reader at 37° C. for 25 minutes.
# [6] = POPC/LPS LUVs aggregation, dynamic light scattering; conditions: peptide 8 and 16 μg/mL
# [7] = system: E. coli O26:B6 LPS-induced endotoxemia; assay: Mouse model of endotoxemia; format: in vivo, C57BL/6 mice; conditions: 18 mg/kg LPS plus 10 mg/kg peptide i.p.
# Description: 5-week old male C57BL/6 mice were purchased from National Laboratory Animal Center (Taiwan). Mice were divided into three groups (five in each group) with intraperitoneal (i.p.) injection of (a) 18 mg/kg of body weight E. coli O26:B6 LPS, (b) 18 mg/kg body weight LPS plus 10 mg/kg peptide, and (c) no treatment. Blood was collected via tail vein 1.5 hours after injection. Whole blood was centrifuged at 3,000 rpm at 4° C. for 10 minutes. After 24 hours, all mice were sacrificed. The lungs were removed and fixed in 4% formaldehyde buffer, and deparaffinized in UltraClear buffer (J. K. Baker) and graded ethanol. Histology of lung sections was performed by hematoxylin and eosin (H&E) staining. Tissue images were captured using light microscope (Eclipse E400, Nikon) with digital microscopy camera (AxioCam ICc 5, ZEISS).
# [8] = system: NO production in J744A.1 cells; assay: Inhibition of LPS-induced NO production (Griess reagent); format: cell-based; conditions: LPS 150 ng/mL, peptide 2-32 μg/mL, 24 hours
# Description: (§5) J744A.1 cells (3×10^5 cells) were seeded in a 24-well plate and incubated for 24 hours. Cells were washed by PBS and LPS (E. coli 026:B6 (SIGMA, 150 ng/mL)) and the anti-endotoxin polypeptide of the present invention (2-32 μg/mL) were added to the wells. After 24 hours treatment, culture supernatant was harvested and centrifuged at 1,000 rpm for 10 minutes. 50 μL of culture supernatant was mixed with 50 μL Griess reagent (SIGMA) in a 96-well plate and incubated at room temperature for 10 minutes. The absorbance at 540 nm was measured and the NO concentration was calculated. Additionally, the concentration of TNF-α in the culture supernatant was evaluated using ELISA kits (eBiosciences).
# Cytotoxicity, MTT assay = format: cell-based; conditions: mouse, J744A.1 cells, 64 μg/mL, read-out: survival rate
# Description: In this embodiment, the cytotoxicity was evaluated by MTT assay. J744A.1 cells were seeded in a 96-well plate with 10^4 cells/100 μL/well and incubated for 24 hours. After removing the medium, 100 μL of fresh medium containing anti-endotoxin polypeptide (2 to 64 μg/mL) was added to the wells. After 24 hours incubation, the fresh medium with 0.5 mg/mL MTT was added and incubated for 3 hours. After the medium/MTT was removed, DMSO was added at 100 μL for dissolving the formazan crystal. Cell survival rate was calculated by measuring the absorbance at 450 nm using Multi-labeled Microplate Reader (VICTOR 3).
# [9] = system: TNF-α release in J744A.1 cells; assay: Inhibition of LPS-induced TNF-α release (ELISA); format: cell-based; conditions: LPS 150 ng/mL, peptide 2-32 μg/mL, 24 hours
# Description: as §5
# [10] = relative to Triton X-100 = 100%
Substance,antibacterial effectiveness compared to other bacteria strain (Acinetobacter sp.),LPS aggregation and particle size [1],calcein leaking activity [2],antibacterial activity ([3]; 200 mM NaCl),antibacterial activity ([3]; low NaCl condition),calcein leaking activity [4],LPS-neutralizing activity (LAL assay) [5],antibacterial activity ([3]; 300 mM salt condition),"calcein leakage [2, 10] [%]",minimum inhibitory concentration (MIC) ([3]; high salt conditions) [µg/mL],POPC/LPS LUVs aggregation and particle size [6],level of TNF-α in blood ([7]; blood 1.5 hours after injection),"proliferation of alveolar epithelial cells and pulmonary hemorrhage (lung histology) ([7]; lungs after 24 hours, H&E)",inhibition of NO production [8],"viability at 24 h, 64 µg/mL (Cytotoxicity, MTT assay) [%]","calcein leakage [4, 10]",inhibition of TNF-α release [9],antibacterial activity ([3]; MH or LYM broth)
KRIVQRIKDFLRAGPRRLVRI (The anti-endotoxin polypeptide synthesized from the laboratory) [KR12AGPVR6],more effective,did not aggregate LPS and change particle size,show leaking activities; also recorded: does-dependent calcein leaking activities,lost its activities,high activities,show leaking activities; also recorded: does-dependent calcein leaking activities,only small effects,–,–,–,–,–,–,–,–,–,–,–
KRIVQRIKDFLRAGPIKDFLR [KR12AGPKR6],more effective,did not aggregate LPS and change particle size,show leaking activities; also recorded: does-dependent calcein leaking activities,–,–,show leaking activities; also recorded: does-dependent calcein leaking activities,only small effects,inactive totally,–,–,–,–,–,–,–,–,–,–
Ac-KRIVQRIKDFLRAGPRRWWRW-NH2 (N-terminus and C-terminus assumed) [KR12AGPWR6],more effective,promoted,show leaking activities; also recorded: does-dependent calcein leaking activities,–,–,show leaking activities; also recorded: does-dependent calcein leaking activities,better LPS-neutralizing activity; also recorded: neutralize downstream reaction dose-dependently,–,~70,2 to 4,promoted,significantly lower; also recorded: suppress,significantly decreased; also recorded: improve,inhibit concentration-dependently,~70,about 80%,inhibited,–
KRIVQRAGPIKDFLR (The anti-endotoxin polypeptide synthesized from the laboratory) [KR15AGP],–,did not aggregate LPS and change particle size,–,–,–,–,only small effects,–,–,–,–,–,–,–,–,–,–,did not show any activity

# From US10611799B2, “Anti-endotoxin polypeptide” (priority 2017, dated 2020)
